This note sets out measurements from patent US8759480B2, “Contoxin analogues and methods for synthesis of intramolecular dicarba bridge-containing peptides” (Syngene Limited, priority 2006, dated 2014).

Structures are written as SMILES.

The experiment deals with neuronal-type nicotinic receptors. The format is cell-based, bovine.

With `CN1CCCC1c1cccnc1` (stereo not shown) [NICOTINE, nicotine, reference compound], the “Adrenaline Release 1st” value stood at 4.31%, the “Adrenaline Release 2nd” value was found to be 4.52%, the “Adrenaline Release 3rd” value is reported as 4.52% and the “Adrenaline Release 4th” value is on record as 4.48%. Besides, the “Adrenaline Release % control” value is on record as 100.000%, the “Adrenaline Release mean” value was 4.46%, the “Noradrenaline Release 1st” value is 6.62% and the “Noradrenaline Release 2nd” value was determined as 6.89%. In addition, the “Noradrenaline Release 3rd” value turned out to be 6.99%, the “Noradrenaline Release 4th” value was found to be 6.89%, the “Noradrenaline Release % control” value was found to be 100.000% and the “Noradrenaline Release mean” value is recorded as 6.85%. Also, the “noradrenaline released, basal release (0.72%) subtracted” value turned out to be 6.13%.
